Measurements taken from US20220298213A1, “IN VIVO ENGINEERED CEREBLON PROTEIN” (Vividion Therapeutics, Inc., priority 2018, published 2022).

What was measured:
Assay in all cases: Inhibition of probe labeling at screening concentration (Table 1)
Format in all cases: binding
PRTN_C = conditions: 500 μM
Procedure: (§1) Cells were resuspended in cold PBS on ice and sonicated with a probe sonicator to achieve lysis. 200 μL of lysate containing 5 mg/ml proteome was treated with 2 μL of 100× compound stock in a 2-mL deep-well plate. The treated lysate was subsequently incubate at 25° C. for 1 hr with shaking at 600 rpm. The treated lysate was further incubated with 2 μL of 10 mM desthiobiotin iodoacetamide probe at 25° C. for 1 hr with shaking at 600 rpm. Next, the lysate was further treat with 20 μL of solution of PBS containing 11 mM MgSO4 and 2.5% Turbonuclease stock and incubated at 25° C. for 20 minutes with shaking at 600 rpm. 1.7 mL ice-cold acetone was added to each well and incubated at −20° C. for 2 hr, followed by max speed (4200 rpm) spin for 45 min. Acetone was then decanted and the plates were blotted to remove acetone. The plates were then dried in open air for 20 minutes. After drying, the plates were then covered with foil seal and stored at −80° C. overnight.

PRTN_D = conditions: 500 μM
Procedure: as §1

PRTN_E = conditions: 500 μM
Procedure: as §1

PRTN_I = conditions: 500 μM
Procedure: as §1

PRTN_H = conditions: 500 μM
Procedure: as §1

PRTN_B = conditions: 500 μM
Procedure: as §1

PRTN_J = conditions: 500 μM
Procedure: as §1

PRTN_A = conditions: 500 μM
Procedure: as §1

PRTN_G = conditions: 500 μM
Procedure: as §1

PRTN_K = conditions: 500 μM
Procedure: as §1

PRTN_F = conditions: 500 μM
Procedure: as §1

CRBN-318 = CRBN-318 (Homo sapiens, UniProt Q96SW2); set-up: endogenous in cells; host or cells: cell lysate; conditions: native folded protein, read-out: Percentage inhibition of probe labeling, CRBN_318
Chain of CRBN-318 (Q96SW2 whole entry): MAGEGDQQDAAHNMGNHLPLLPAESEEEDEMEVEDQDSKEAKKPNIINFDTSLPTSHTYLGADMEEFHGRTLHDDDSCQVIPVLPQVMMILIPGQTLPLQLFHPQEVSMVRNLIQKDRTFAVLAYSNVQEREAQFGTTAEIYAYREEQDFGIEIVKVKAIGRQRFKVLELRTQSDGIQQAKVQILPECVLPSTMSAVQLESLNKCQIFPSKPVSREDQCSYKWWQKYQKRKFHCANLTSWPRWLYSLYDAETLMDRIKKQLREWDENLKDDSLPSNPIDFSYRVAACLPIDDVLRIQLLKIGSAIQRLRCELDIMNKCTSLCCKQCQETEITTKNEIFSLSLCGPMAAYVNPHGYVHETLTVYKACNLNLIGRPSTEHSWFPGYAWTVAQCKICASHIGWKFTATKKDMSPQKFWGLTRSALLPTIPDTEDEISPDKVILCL
Procedure: as §1

CRBN-287 = CRBN-287 (Homo sapiens, UniProt Q96SW2); set-up: endogenous in cells; host or cells: cell lysate; conditions: native folded protein, read-out: Percentage inhibition of probe labeling, CRBN_287
Chain of CRBN-287 (Q96SW2 whole entry): as above
Procedure: as §1

| Structure (SMILES) | Percentage inhibition of probe labeling, PRTN_C (PRTN_C) [%] | Percentage inhibition of probe labeling, PRTN_D (PRTN_D) [%] | Percentage inhibition of probe labeling, PRTN_E (PRTN_E) [%] | Percentage inhibition of probe labeling, PRTN_I (PRTN_I) [%] | Percentage inhibition of probe labeling, PRTN_H (PRTN_H) [%] | Percentage inhibition of probe labeling, PRTN_B (PRTN_B) [%] | Percentage inhibition of probe labeling, PRTN_J (PRTN_J) [%] | Percentage inhibition of probe labeling, PRTN_A (PRTN_A) [%] | Percentage inhibition of probe labeling, PRTN_G (PRTN_G) [%] | Percentage inhibition of probe labeling, PRTN_K (PRTN_K) [%] | Percentage inhibition of probe labeling, PRTN_F (PRTN_F) [%] | inhibition at 500 µM (CRBN-318) [%] | inhibition at 500 µM (CRBN-287) [%] |
| --- | --- | --- | --- | --- | --- | --- | --- | --- | --- | --- | --- | --- | --- |
| CCc1ccccc1-c1cccc(NC2CCN(C(=O)/C=C/CC(C)C)CC2)c1 | 14 | 17 | 12 | 14 | 4 | 3 | 11 | 10 | 13 | 22 | 2 | 96 | 98 |
| C=CC(=O)N1CCC(Nc2cc(C(N)=O)cc(-c3ccccc3CC)c2)CC1 | 19 | 18 | 8 | −1 | 6 | 0 | 7 | −2 | 6 | 12 | 4 | 98 | 97 |
| C=CC(=O)N1CCC(Cc2cccc(-c3ccccc3NC(C)=O)c2)CC1 | 3 | 8 | 9 | −1 | 2 | 8 | 21 | 8 | 12 | 20 | 7 | 71 | 69 |
| C=CC(=O)N1CCC(Oc2cc(C)cc(-c3ccccc3OC)c2)CC1 | 18 | 9 | 11 | 7 | 9 | 2 | 6 | 7 | 13 | 13 | 6 | 94 | 94 |
